# Measurements taken from PubChem BioAssay (NCI).
#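 Following 48 hours of exposure in 96-well plates, responses at five concentrations were used to interpolate endpoints linearly. At the TGI there is no net growth.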
# Key:
# Experiment in all cases: NCI tumour cell line growth inhibition, 48 h
# NCI-H226 lung = tested on: NCI-H226 lung
# A498 renal = tested on: A498 renal
# NCI-H522 lung = tested on: NCI-H522 lung
# MDA-MB-231 breast = tested on: MDA-MB-231 breast
# CAKI-1 renal = tested on: CAKI-1 renal
# U251 CNS = tested on: U251 CNS
# ACHN renal = tested on: ACHN renal
# DU-145 prostate = tested on: DU-145 prostate
# SF-539 CNS = tested on: SF-539 CNS
# SF-268 CNS = tested on: SF-268 CNS
# SW-620 colon = tested on: SW-620 colon
# T-47D breast = tested on: T-47D breast
# HCT-15 colon = tested on: HCT-15 colon
# NCI-H460 lung = tested on: NCI-H460 lung
# MDA-MB-435 = tested on: MDA-MB-435
# SNB-19 CNS = tested on: SNB-19 CNS
# UACC-62 melanoma = tested on: UACC-62 melanoma
SMILES,TGI (NCI-H226 lung),TGI (A498 renal),TGI (NCI-H522 lung),TGI (MDA-MB-231 breast),TGI (CAKI-1 renal),TGI (U251 CNS),TGI (ACHN renal),TGI (DU-145 prostate),TGI (SF-539 CNS),TGI (SF-268 CNS),TGI (SW-620 colon),TGI (T-47D breast),TGI (HCT-15 colon),TGI (NCI-H460 lung),TGI (MDA-MB-435),TGI (SNB-19 CNS),TGI (UACC-62 melanoma)
O=C1/C(=C/c2ccccc2)N=C(c2ccccc2)N1C1Nc2cc3c(cc2S1)NC(N1C(=O)/C(=C/c2ccccc2)N=C1c1ccccc1)S3 (configuration not stated),> 100 µM,68 µM,0.0623 µM,> 100 µM,> 100 µM,> 100 µM,> 100 µM,> 100 µM,> 100 µM,> 100 µM,78.5 µM,> 100 µM,82.9 µM,> 100 µM,47.1 µM,,
COc1ccc(OC)c(-c2nc3ccccc3c(=O)[nH]2)c1,> 100 µM,> 100 µM,,> 100 µM,> 100 µM,> 100 µM,> 100 µM,> 100 µM,> 100 µM,> 100 µM,> 100 µM,> 100 µM,> 100 µM,> 100 µM,> 100 µM,> 100 µM,> 100 µM
NC1CC(=O)c2csc(Cl)c21 (configuration not stated),94.6 µM,33.5 µM,3.32 µM,22.5 µM,3.68 µM,22.9 µM,10.3 µM,20.9 µM,9.56 µM,31.8 µM,,> 23.6 µM,14.2 µM,49.5 µM,27.3 µM,33.2 µM,24.7 µM
CCCNC(C#N)c1ccc(OCCCCCCCCCCOc2ccc(C(C#N)NCCC)cc2)cc1 (configuration not stated),93.9 µM,42.7 µM,> 100 µM,> 100 µM,,42.7 µM,> 100 µM,> 100 µM,> 100 µM,> 100 µM,> 100 µM,> 100 µM,> 100 µM,> 100 µM,> 100 µM,> 100 µM,> 100 µM
O=C1CSC(c2ccc(Cl)cc2)N1c1ccc(-c2ccc(-n3c(-c4ccccc4)nc4ccccc4c3=O)cc2)cc1 (configuration not stated),,> 100 µM,> 100 µM,> 100 µM,> 100 µM,85.8 µM,> 100 µM,> 100 µM,> 100 µM,> 100 µM,> 100 µM,52.1 µM,> 100 µM,> 100 µM,71.3 µM,> 100 µM,> 100 µM
O=C1C[C@@H](Sc2ccccc2)C2(OCCO2)[C@H]2ON3CCC[C@@H]3[C@@H]12,34.5 µM,30.5 µM,,7.67 µM,15.9 µM,18 µM,15.2 µM,6.07 µM,19.8 µM,12.1 µM,13.5 µM,8.75 µM,9.7 µM,18.7 µM,10 µM,29 µM,24.3 µM
O=C(Nc1nnc(-c2c(Cl)c(Cl)c(Cl)c(Cl)c2-c2nc3cc(C(=O)c4ccccc4)ccc3[nH]2)o1)c1ccccc1,35.5 µM,49.6 µM,,33.7 µM,> 100 µM,26.5 µM,55.6 µM,47.8 µM,23.7 µM,,> 100 µM,54.7 µM,36.7 µM,,30.8 µM,34.7 µM,
Cc1cc(C)n(-c2nc3ccccc3c(=O)n2-c2ccccc2)n1,> 100 µM,> 100 µM,> 100 µM,> 100 µM,> 100 µM,> 100 µM,> 100 µM,> 100 µM,> 100 µM,> 100 µM,> 100 µM,> 100 µM,> 100 µM,> 100 µM,> 100 µM,> 100 µM,
CC[C@H](C)C1=C(O)[N@+]2([O-])Oc3ccc(-c4c(O)c(O)c(-c5ccc(OC(C)=O)cc5)c(OC(C)=O)c4OC(C)=O)cc3O[C@]2([C@@H](C)CC)C(=O)N1O,,> 50 µM,18 µM,> 50 µM,> 50 µM,> 50 µM,> 50 µM,> 50 µM,> 50 µM,> 50 µM,23.6 µM,> 50 µM,> 50 µM,> 50 µM,> 50 µM,> 50 µM,> 50 µM
Cc1ccsc1C(=O)C(CC(=O)c1cccs1)c1ccsc1 (configuration not stated),> 100 µM,> 100 µM,> 100 µM,> 100 µM,> 100 µM,> 100 µM,> 100 µM,> 100 µM,> 100 µM,> 100 µM,> 100 µM,77.1 µM,> 100 µM,> 100 µM,> 100 µM,> 100 µM,
CCN1C(=O)c2ccccc2C1(O)c1ccc(Cl)cc1 (configuration not stated),74.3 µM,> 100 µM,,> 100 µM,> 100 µM,> 100 µM,> 100 µM,> 100 µM,> 100 µM,> 100 µM,> 100 µM,> 100 µM,> 100 µM,> 100 µM,> 100 µM,> 100 µM,> 100 µM
CC(C)Oc1ccc(CNC2=NCCO2)c2ccccc12,33 µM,23 µM,,28.9 µM,,32.1 µM,27.7 µM,33.5 µM,24 µM,45.7 µM,31.7 µM,31.3 µM,29.8 µM,26.7 µM,24.2 µM,23 µM,30.6 µM
